# Assay results: article PMC8510601, “Discovery of benzamide-hydroxypyridinone hybrids as potent multi-targeting agents for the treatment of Alzheimer's disease” (Journal of Enzyme Inhibition and Medicinal Chemistry, 2021)
# Columns and labels:
# MAO-B = biological target: T1, MAO-B (Homo sapiens, UniProt P27338); experiment: Human MAO-B inhibition assay; format: biochemical; settings: for inhibition at 0.1 µM: 100 nM, read-out: Inhibitory rate ± SEM (%, 100 nM); for inhibition at 1 µM: read-out: Inhibitory rate ± SEM (%, 1 μM); for IC50: ± SEM, read-out: IC50 against MAO-B
# T1 sequence (P27338 1-520): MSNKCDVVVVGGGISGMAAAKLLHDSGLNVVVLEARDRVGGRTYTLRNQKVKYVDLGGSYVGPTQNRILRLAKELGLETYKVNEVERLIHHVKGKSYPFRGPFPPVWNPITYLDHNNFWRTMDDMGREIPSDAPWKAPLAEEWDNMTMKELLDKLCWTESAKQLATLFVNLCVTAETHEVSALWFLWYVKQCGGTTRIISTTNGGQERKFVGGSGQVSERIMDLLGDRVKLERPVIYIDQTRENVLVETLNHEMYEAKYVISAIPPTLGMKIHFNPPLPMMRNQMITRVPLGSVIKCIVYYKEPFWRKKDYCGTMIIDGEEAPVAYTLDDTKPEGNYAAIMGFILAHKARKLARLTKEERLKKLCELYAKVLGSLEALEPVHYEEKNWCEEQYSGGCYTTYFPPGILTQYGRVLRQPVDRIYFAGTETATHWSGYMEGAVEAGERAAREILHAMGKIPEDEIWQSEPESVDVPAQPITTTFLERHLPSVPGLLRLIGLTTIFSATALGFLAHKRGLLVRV
# [1] = pKa determination by spectrophotometric titration; settings: 0.1 M KCl aqueous solution, pH range 2.0–10.5, 25 °C
# [2] = Iron-chelating activity test: affinity constants for Fe3+ and pFe3+; settings: for Log β2 / Log β3: KCl (0.1 M): DMSO = 3:2 (v/v); for Log β1: KCl (0.1 M): DMSO = 9:1 (v/v); for pFe^3+: pH 7.4, [Fe3+]total = 10^−6 M, [ligand]total = 10^−5 M, calculated from pKa and log β measured in KCl/DMSO
Compound,inhibition at 0.1 µM (MAO-B) [%],inhibition at 1 µM (MAO-B) [%],IC50 (MAO-B) [µM],pKa ([1]; KCl (0.1 M)),"pKa ([1]; pKa2, KCl (0.1 M))",melting point [°C],Log β2 [2],Log β3 [2],Log β1 [2],pFe^3+ [2]
Cc1c(O)c(=O)ccn1CCNC(=O)c1ccccc1 [Compound 8a],> 50,77.65 ± 0.6,0.079 ± 0.0003,3.43,9.81,211 to 213,26.35,35.83,14.93,19.14
COc1ccccc1C(=O)NCCn1ccc(=O)c(O)c1C [Compound 8b],38.8 ± 1.16,59.9 ± 1.57,,3.41,9.88,,26.20,35.45,14.64,18.56
COc1cccc(C(=O)NCCn2ccc(=O)c(O)c2C)c1 [Compound 8c],31.9 ± 0.85,59.97 ± 0.14,,3.37,9.83,218 to 220,26.17,35.55,14.68,18.80
COc1ccc(C(=O)NCCn2ccc(=O)c(O)c2C)cc1 [Compound 8d],36.02 ± 0.15,63 ± 3.9,0.2108 ± 0.00121,3.34,9.82,241 to 243,25.95,35.25,14.52,18.53
Cc1c(O)c(=O)ccn1CCNC(=O)c1ccccc1OCc1ccccc1 [Compound 8e],33.1 ± 1.43,51.5 ± 1.06,,3.38,9.99,180 to 182,26.46,35.64,14.66,18.43
Cc1c(O)c(=O)ccn1CCNC(=O)c1cccc(OCc2ccccc2)c1 [Compound 8f],37.9 ± 1.22,54.57 ± 0.51,,3.38,9.92,178 to 180,26.85,35.33,14.75,18.38
CCOc1ccc(C(=O)NCCn2ccc(=O)c(O)c2C)cc1 [Compound 8h],48.1 ± 1.57,66.75 ± 0.34,0.119 ± 0.00276,3.27,9.8,246 to 248,26.06,35.33,14.67,18.67
CCCOc1ccc(C(=O)NCCn2ccc(=O)c(O)c2C)cc1 [Compound 8i],> 50,53.41 ± 0.31,0.0891 ± 0.0101,3.41,9.84,214 to 243,25.98,35.18,14.56,18.40
C#CCOc1ccc(C(=O)NCCn2ccc(=O)c(O)c2C)cc1 [Compound 8j],38.7 ± 0.94,58.6 ± 1.18,,3.41,9.88,208 to 210,26.14,35.24,14.67,18.35
Cc1c(O)c(=O)ccn1CCNC(=O)c1ccc(OCc2cccc(F)c2)cc1 [Compound 8l],> 50,> 80,0.0964 ± 0.00678,3.51,9.74,,26.72,35.87,14.76,19.39
Cc1c(O)c(=O)ccn1CCNC(=O)c1ccc(OCc2cccc(Cl)c2)cc1 [Compound 8n],47.7 ± 6.06,72.4 ± 3.26,0.1109 ± 0.0011,3.32,9.55,236 to 238,25.95,34.39,14.64,18.51
Cc1cccc(COc2ccc(C(=O)NCCn3ccc(=O)c(O)c3C)cc2)c1 [Compound 8s],49.3 ± 2.58,71.3 ± 1.02,0.1223 ± 0.00021,3.31,9.86,,26.67,35.67,14.67,18.85
Cc1ccc(COc2ccc(C(=O)NCCn3ccc(=O)c(O)c3C)cc2)cc1 [Compound 8t],45.1 ± 1.62,64.1 ± 0.82,0.118 ± 0.00424,3.12,9.93,245 to 247,26.42,35.19,14.45,18.18
Cc1c(O)c(=O)ccn1CCNC(=O)c1ccc(OCc2ccc(C(C)(C)C)cc2)cc1 [Compound 8v],48.9 ± 1.93,64.2 ± 1.94,0.124 ± 0.00132,3.29,9.56,245 to 247,25.51,35.20,14.69,19.25
Cc1c(O)c(=O)ccn1CCNC(=O)c1cccc(O)c1 [Compound 8x],43.63 ± 0.34,55.75 ± 0.03,0.121 ± 0.00194,3.28,9.75,144 to 146,25.93,34.96,14.67,18.46
Cc1c(O)c(=O)ccn1CCNC(=O)c1ccc(O)cc1 [Compound 8y],37.6 ± 1.01,55.3 ± 1.91,,3.33,9.95,163 to 165,26.07,35.42,14.61,18.31

# The next lines start with results.
inhibition at 0.1 µM (MAO-B) [%],inhibition at 1 µM (MAO-B) [%],IC50 (MAO-B) [µM],pKa ([1]; KCl (0.1 M)),"pKa ([1]; pKa2, KCl (0.1 M))",melting point [°C],Compound,Log β2 [2],Log β3 [2],Log β1 [2],pFe^3+ [2]
39.5 ± 2.38,63.3 ± 0.92,0.189 ± 0.00751,3.21,9.89,274 to 276,Cc1c(O)c(=O)ccn1CCNC(=O)c1ccc(OCC2CCCCC2)cc1 [Compound 8k],26.31,35.84,14.44,18.91
> 50,70.9 ± 2.51,0.0828 ± 0.0008,3.62,9.76,254 to 256,Cc1c(O)c(=O)ccn1CCNC(=O)c1ccc(OCc2ccc(F)cc2)cc1 [Compound 8m],26.77,35.31,15.03,18.81
48.5 ± 4.37,63.6 ± 4.14,0.139 ± 0.00174,3.33,9.63,,Cc1c(O)c(=O)ccn1CCNC(=O)c1ccc(OCc2ccc(Cl)cc2)cc1 [Compound 8o],26.09,34.55,14.43,18.44
41.4 ± 2.45,65.1 ± 1.47,0.175 ± 0.00673,3.27,9.82,236 to 238,Cc1c(O)c(=O)ccn1CCNC(=O)c1ccc(OCc2cc(F)ccc2F)cc1 [Compound 8p],26.58,35.44,14.47,18.74
49.7 ± 4.22,63.9 ± 0.67,0.0938 ± 0.00648,3.27,9.82,,Cc1c(O)c(=O)ccn1CCNC(=O)c1ccc(OCc2cc(F)cc(F)c2)cc1 [Compound 8q],26.63,35.73,14.61,19.01
46.5 ± 6.99,63.4 ± 4.06,0.1877 ± 0.00042,3.25,9.78,268 to 270,Cc1c(O)c(=O)ccn1CCNC(=O)c1ccc(OCc2ccc(C(F)(F)F)cc2)cc1 [Compound 8r],26.01,34.98,14.48,18.39
41.5 ± 1.94,62.92 ± 0.51,0.128 ± 0.00396,3.33,9.58,247 to 249,Cc1c(O)c(=O)ccn1CCNC(=O)c1ccc(OCc2ccc(C(C)C)cc2)cc1 [Compound 8u],25.58,35.36,14.67,19.35
44.38 ± 0.23,56.43 ± 0.24,0.1215 ± 0.00086,3.47,9.68,156 to 158,Cc1c(O)c(=O)ccn1CCNC(=O)c1ccccc1O [Compound 8w],25.69,34.63,14.45,18.34
